Patent publication US7598273B2, “Inhibitors of the gastric H+, K+-ATPase with enhanced therapeutic properties” (Auspex Pharmaceuticals, Inc, priority 2005, dated 2009)

What was measured:
[1] = tested on: pylorus-ligated rats; assay: Rat gastric activity, pylorus ligation (antisecretory activity); format: in vivo; conditions: PO 30 mg/kg, 30 minutes before ligation, gastric contents collected 4 hours later, Wistar male rats
Protocol: Compounds of formula (1) according to the present invention were evaluated for possible antisecretory activity in pylorus-ligated rats. […] Wistar derived male rats weighing 210±10 g were fasted overnight. […] Animals were sacrificed 4 hours later and the gastric contents were collected. After centrifugation, the volume of each sample was measured and acidity was determined by titration.

[2] = human, topical or ocular
[3] = cited from earlier work

increase in the degradation half-life, as compared to the non-isotopically enriched drug [2]	SMILES	other results
≥ 10%	[2H]c1nc(C([2H])([2H])[S+]([O-])c2nc3cc(OC)ccc3[nH]2)c(C([2H])([2H])[2H])c(OC)c1C([2H])([2H])[2H] (centres unmarked) [Example 21, d9-5-methoxy-2-(4-methoxy-3,5-dimethylpyridin-2-ylmethane-sulfinyl)-1H-benzimidazole]	
≥ 10%	[2H]C([2H])([2H])Oc1ccc2[nH]c([S+]([O-])C([2H])([2H])c3ncc(C)c(OC([2H])([2H])[2H])c3C)nc2c1 (centres unmarked) [Example 25, d8-5-methoxy-2-(4-methoxy-3,5-dimethylpyridin-2-ylmethane-sulfinyl)-1H-benzimidazole]	
≥ 10%	[2H]C([2H])([2H])Oc1ccc2[nH]c([S+]([O-])Cc3ncc(C)c(OC)c3C)nc2c1 (centres unmarked) [Example 26, d3-5-methoxy-2-(4-methoxy-3,5-dimethylpyridin-2-ylmethane-sulfinyl)-1H-benzimidazole]	
≥ 10%	[2H]C([2H])([2H])Oc1ccc2[nH]c([S+]([O-])Cc3ncc(C)c(OC([2H])([2H])[2H])c3C)nc2c1 (centres unmarked) [Example 27, d6-5-methoxy-2-(4-methoxy-3,5-dimethylpyridin-2-ylmethane-sulfinyl)-1H-benzimidazole]	
≥ 10%	[2H]C([2H])([2H])Oc1ccc2[nH]c([S+]([O-])C([2H])([2H])c3ncc(C)c(OC)c3C)nc2c1 (centres unmarked) [Example 28, d5-5-methoxy-2-(4-methoxy-3,5-dimethylpyridin-2-ylmethane-sulfinyl)-1H-benzimidazole]	
≥ 10%	[2H]C([2H])([2H])Oc1c(C)cnc(C([2H])([2H])[S+]([O-])c2nc3cc(OC)ccc3[nH]2)c1C (centres unmarked) [Example 32, d5-5-methoxy-2-(4-methoxy-3,5-dimethylpyridin-2-ylmethane-sulfinyl)-1H-benzimidazole]	
≥ 10%	[2H]C([2H])([2H])Oc1c(C)cnc(C[S+]([O-])c2nc3cc(OC)ccc3[nH]2)c1C (centres unmarked) [Example 34, d3-5-methoxy-2-(4-methoxy-3,5-dimethylpyridin-2-ylmethane-sulfinyl)-1H-benzimidazole]	
≥ 10%	[2H]c1nc(C[S@+]([O-])c2nc3cc(OC([2H])([2H])[2H])ccc3[nH]2)c(C([2H])([2H])[2H])c(OC([2H])([2H])[2H])c1C([2H])([2H])[2H] [Example 39, d13-(S)-5-methoxy-2-(4-methoxy-3,5-dimethylpyridin-2-ylmethane-sulfinyl)-1H-benzimidazole]	degradation half-life increased as compared to non-isotopically enriched omeprazole [2]: 20-60%

The next lines start with the molecule.

SMILES	increase in the degradation half-life, as compared to the non-isotopically enriched drug [2]	other results
[2H]c1nc(C([2H])([2H])[S+]([O-])c2nc3cc(OC([2H])([2H])[2H])ccc3[nH]2)c(C([2H])([2H])[2H])c(OC([2H])([2H])[2H])c1C([2H])([2H])[2H] (centres unmarked) [Example 10, d15-5-methoxy-2-(4-methoxy-3,5-dimethyl-pyridin-2-ylmethane-sulfinyl)-1H-benzimidazole]	≥ 10%	% inhibition relative to vehicle controls: Acidity (μEq/mL) [1]: 89%; % inhibition relative to vehicle controls: Total Acid Output (μEq/4 hours) [1]: 95%; % inhibition relative to vehicle controls: Volume (mL/4 hours) [1]: 55%; degradation half-life increased as compared to non-isotopically enriched omeprazole [2]: 20-60%
[2H]c1nc(C[S+]([O-])c2nc3cc(OC([2H])([2H])[2H])ccc3[nH]2)c(C([2H])([2H])[2H])c(OC([2H])([2H])[2H])c1C([2H])([2H])[2H] (centres unmarked) [Example 11, d13-5-methoxy-2-(4-methoxy-3,5-dimethylpyridin-2-ylmethane-sulfinyl)-1H-benzimidazole]	≥ 10%	degradation half-life increased as compared to non-isotopically enriched omeprazole [2]: 20-60%
[2H]c1nc(C[S+]([O-])c2nc3cc(OC([2H])([2H])[2H])ccc3[nH]2)c(C([2H])([2H])[2H])c(OC)c1C([2H])([2H])[2H] (centres unmarked) [Example 13, d10-5-methoxy-2-(4-methoxy-3,5-dimethylpyridin-2-ylmethane-sulfinyl)-1H-benzimidazole]	≥ 10%	
[2H]c1nc(C([2H])([2H])[S+]([O-])c2nc3cc(OC([2H])([2H])[2H])ccc3[nH]2)c(C([2H])([2H])[2H])c(OC)c1C([2H])([2H])[2H] (centres unmarked) [Example 14, d12-5-methoxy-2-(4-methoxy-3,5-dimethylpyridin-2-ylmethane-sulfinyl)-1H-benzimidazole]	≥ 10%	
[2H]c1nc(C([2H])([2H])[S+]([O-])c2nc3cc(OC)ccc3[nH]2)c(C([2H])([2H])[2H])c(OC([2H])([2H])[2H])c1C([2H])([2H])[2H] (centres unmarked) [Example 18, d12-5-methoxy-2-(4-methoxy-3,5-dimethylpyridin-2-ylmethane-sulfinyl)-1H-benzimidazole]	≥ 10%	
[2H]c1nc(C[S+]([O-])c2nc3cc(OC)ccc3[nH]2)c(C([2H])([2H])[2H])c(OC)c1C([2H])([2H])[2H] (centres unmarked) [Example 19, d7-5-methoxy-2-(4-methoxy-3,5-dimethylpyridin-2-ylmethane-sulfinyl)-1H-benzimidazole]	≥ 10%	
[2H]c1nc(C[S+]([O-])c2nc3cc(OC)ccc3[nH]2)c(C([2H])([2H])[2H])c(OC([2H])([2H])[2H])c1C([2H])([2H])[2H] (centres unmarked) [Example 20, d10-5-methoxy-2-(4-methoxy-3,5-dimethylpyridin-2-ylmethane-sulfinyl)-1H-benzimidazole]	≥ 10%	
COc1ccc2nc([S@@+]([O-])Cc3ncc(C)c(OC)c3C)[nH]c2c1 [esomeprazole, (S)-5-methoxy-2-(4-methoxy-3,5-dimethylpyridin-2-ylmethane-sulfinyl)-1H-benzimidazole]		ratio of AUC in Poor metabolizers to AUC in the rest of the population (extensive metabolizers) ([3]; at steady state, CYP2C19 poor vs extensive metabolizers): approximately 2; half-life in human plasma higher than that of omeprazole ([3]; human plasma, relative to omeprazole): 20%
